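Compound exposure: 48 hours, 5 concentrations, 96-well plates. At the TGI there is no net growth.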 *1 amine or outer side, *2 acyl side, *3 side chain or, on linkers, in order; H or OH if unused. Where a SMILES comes first, the peptide text is derived from it. The star is where a group is joined. γGlu = O=C(O)[CH](CCC(=O)[*:2])N[*:1]; NHOH = ON*

Common to all, as to test: NCI anticancer screen, dose series, 48 h
Experiment [1] concerns A498 renal.
In experiment [2] the test system is DU-145 prostate.
Experiment [3] relates to HOP-62 NSCLC.
Experiment [4] deals with HT29 colon.
Experiment [5] has as its system IGROV1 ovarian.
In experiment [6] the test system is MDA-MB-435.
Experiment [7] concerns MOLT-4 leukemia.
For experiment [8], the system named is NCI-H226 lung.
Experiment [9] relates to NCI/ADR-RES ovarian.
The test system of experiment [10] is OVCAR-3 ovarian.
For experiment [11], the system named is OVCAR-4 ovarian.
In experiment [12] the test system is OVCAR-5 ovarian.
In experiment [13] the test system is RXF 393 renal.
Experiment [14] relates to SF-268 CNS.
Experiment [15] deals with SF-539 CNS.
Experiment [16] concerns SK-MEL-28 melanoma.
The test system of experiment [17] is SK-OV-3 ovarian.
For experiment [18], the system named is TK-10 renal.
For experiment [19], the system named is U251 CNS.
Experiment [20] has as its system SR leukemia.

On to `CCOC(=O)CNC(=O)C(CCC(=O)NO)NC(=O)CCC(N)C(=O)O` (configuration not stated) (γGlu-Glu(NHOH)-Gly-OEt; configuration not given here), for which the TGI in experiment [1], in experiment [2], in experiment [3], in [4], in [5] and in experiment [6] was > 100 µM in each case. Also, the TGI in [7], in [8], in experiment [9], in experiment [10], in experiment [11] and in [12] was > 100 µM each time. Also, the TGI in [13], in experiment [14], in [15], in experiment [16], in [17] and in [18] was > 100 µM each time. In addition, the TGI in [19] was > 100 µM.
Take `N#Cc1cn(-c2c3ccccc3nc3ccccc23)c(=O)[nH]c1=O`: the TGI in experiment [4] was 28.5 µM; in [5], 71.8 µM; in experiment [7], 22.6 µM; in experiment [10] it was 35.6 µM; in experiment [11], 20.4 µM; in experiment [12], 32.9 µM. For the same compound, the TGI is 29.7 µM in experiment [14]; 7.71 µM in experiment [15]; 31.4 µM in [16]; 33.1 µM in [17]; 24.6 µM in experiment [20]; > 100 µM in [18]. Further, the TGI in experiment [19] was 71 µM.
On to `Cc1ccc2nc3c(C)cc(=O)cc-3sc2c1`, for which the TGI in experiment [3] was 58.8 µM; in experiment [4] it was > 100 µM; in experiment [5] it was > 100 µM; in [7] it was 38.9 µM; in experiment [8] it was > 100 µM; in [10], 55.2 µM. Besides, the TGI in experiment [11] was 33.6 µM; in [12], 61 µM; in experiment [14] it was > 100 µM; in experiment [15] it was 42.6 µM; in experiment [16], 73 µM; in experiment [17], > 100 µM. For the same compound, the TGI in [20] was 46.7 µM; in experiment [18], 49.8 µM; in experiment [19], > 100 µM.
Turning to `COc1ccc(Nc2nc3ccc(C(F)(F)F)cc3nc2C(=O)O)cc1`, the TGI in [1] is 57.2 µM; in experiment [2], > 100 µM; in [3] it was > 100 µM; in [4] it was > 100 µM; in experiment [5], 39.5 µM; in experiment [6] it was > 100 µM. In addition, the TGI in [7] was 98.6 µM; in [8], > 100 µM; in experiment [9] it was > 100 µM; in experiment [10] it was 47.4 µM; in experiment [11], > 100 µM; in experiment [12], 84.9 µM. Further, the TGI in experiment [13] was 62.6 µM; in experiment [14] it was > 100 µM; in experiment [15], 75.9 µM; in experiment [16], > 100 µM; in experiment [17], 71.5 µM; in experiment [18], > 100 µM. Moreover, the TGI in experiment [19] is > 100 µM.
Take `N#CC1=C(N)OC(c2cccc([N+](=O)[O-])c2)C1(C#N)C#N` (configuration not stated): the TGI amounted to 36.7 µM in experiment [1]; 31.2 µM in experiment [2]; 57 µM in experiment [3]; 37.2 µM in experiment [4]; 35.4 µM in [5]; 59.2 µM in experiment [6]. Also, the TGI in [8] is 94.3 µM; in experiment [9], > 100 µM; in experiment [12], 42.7 µM; in experiment [13] it was 43.3 µM; in [14] it was 87 µM; in experiment [15] it was 42.5 µM. Also, the TGI in [17] was > 100 µM; in experiment [18], 33.8 µM; in [19], > 100 µM.
Take `Cc1c(N=Nc2ccc(Cl)cc2)c(C)n(C2OC(CO)C(O)C(O)C2O)c(=S)c1C#N` (configuration not stated): the TGI was > 100 µM in [2]; 36.8 µM in experiment [3]; > 100 µM in [4]; 37.4 µM in [5]; 42.7 µM in [6]; 42.3 µM in experiment [7]. Besides, the TGI is 65.9 µM in experiment [8]; 47.1 µM in [9]; 34.2 µM in [10]; 50.1 µM in experiment [11]; > 100 µM in experiment [12]; 71.6 µM in experiment [13]. In addition, the TGI was 52.1 µM in experiment [14]; 38 µM in experiment [15]; 52.3 µM in experiment [16]; > 100 µM in experiment [17]; 79.5 µM in experiment [18]; 36.4 µM in experiment [19].
For the compound `Cc1ccc(S(=O)(=O)Oc2nc3nc4ccccc4nc3nc2OS(=O)(=O)c2ccc(C)cc2)cc1`, the TGI in experiment [1], in experiment [2], in experiment [4], in [5], in [6] and in [8] was > 100 µM throughout. Moreover, the TGI in experiment [9], in [10], in experiment [12], in experiment [13], in experiment [14] and in [15] was > 100 µM in each case. Further, the TGI in experiment [16], in experiment [17], in [18] and in experiment [19] was > 100 µM throughout.
For `Cc1nc2ccc(N)cc2[nH]c1=O`, the TGI in experiment [1], in experiment [3], in experiment [5], in experiment [7], in experiment [10] and in experiment [11] was > 100 µM throughout. The TGI in [12], in experiment [15], in experiment [17], in [18] and in experiment [19] was > 100 µM in each case.
Regarding `CSc1nc(Br)nc2ncn(C3CC(Oc4ccc(C)cc4)C(COc4ccc(C)cc4)O3)c12` (configuration not stated), the TGI in experiment [1], in [2], in [3], in experiment [4], in [5] and in experiment [6] was > 100 µM in each case. Moreover, the TGI in experiment [7], in experiment [8], in experiment [9], in experiment [10], in experiment [11] and in experiment [12] was > 100 µM each time. Further, the TGI in experiment [14], in [15], in experiment [16], in experiment [17], in experiment [18] and in [19] was > 100 µM throughout.
For the compound `O=c1c2n[nH]nc2nc2n1CC(c1ccccc1)S2` (configuration not stated), the TGI in experiment [1], in experiment [2], in experiment [3], in experiment [5], in experiment [6] and in [7] was > 100 µM in each case. Besides, the TGI in experiment [8] was > 100 µM; in [9], > 100 µM; in [10] it was > 100 µM; in experiment [11], > 100 µM; in [12] it was > 100 µM; in experiment [13], 94.9 µM. The TGI in experiment [14], in experiment [15], in [16], in experiment [17], in [18] and in [19] was > 100 µM throughout.
As for `COc1cc2c(cc1OC)C(=O)/C(=C/c1cc(Cl)cc(Cl)c1)C2`, the TGI in experiment [1] is > 100 µM; in [2], > 100 µM; in [3] it was > 100 µM; in experiment [4], > 100 µM; in [5], > 100 µM; in [6], > 19.6 µM. For the same compound, the TGI in experiment [7] was > 100 µM; in experiment [8], > 100 µM; in experiment [9], 10.4 µM; in [10] it was > 100 µM; in [11], 98.1 µM; in experiment [12] it was > 100 µM. Also, the TGI in [13] is > 100 µM; in experiment [14] it was > 100 µM; in [15], 9.94 µM; in [16] it was > 100 µM; in experiment [17], > 54.6 µM; in [18], > 100 µM. Further, the TGI in experiment [19] was > 100 µM.
Turning to `N#CC1CCCCC1NC1(C#N)CCCCC1` (configuration not stated), the TGI in experiment [1], in [3], in experiment [4], in [5], in [7] and in experiment [8] was > 100 µM in each case. Moreover, the TGI in [10], in experiment [13], in experiment [14], in experiment [15], in experiment [16] and in [17] was > 100 µM throughout. In addition, the TGI in [18] and in [19] was > 100 µM throughout.
Regarding `Cn1cnc2c1c(=O)n(CCNCCO)c(=O)n2C`, the TGI in [1], in experiment [2], in experiment [3], in experiment [4], in experiment [5] and in experiment [6] was > 100 µM each time. Moreover, the TGI in experiment [7], in experiment [8], in experiment [9], in experiment [10], in [11] and in experiment [12] was > 100 µM throughout. In addition, the TGI in [13], in experiment [14], in [15], in experiment [16], in experiment [17] and in [18] was > 100 µM each time. The TGI in experiment [19] is > 100 µM.
Take `Clc1ccc(-c2nc3ccc4ccccc4c3c3c2CCCC3)cc1`: the TGI in experiment [1], in experiment [2], in experiment [3], in experiment [4], in experiment [5] and in experiment [6] was > 100 µM throughout. In addition, the TGI in experiment [7], in experiment [8], in experiment [9], in [10], in experiment [12] and in experiment [13] was > 100 µM each time. The TGI in experiment [14], in experiment [15], in [16], in experiment [17], in experiment [18] and in experiment [19] was > 100 µM throughout.
For `CC(=O)NC(CCCNC(=O)OCc1ccccc1)C(=O)O` (configuration not stated), the TGI in experiment [1], in [3], in [4], in [5], in experiment [7] and in experiment [8] was > 100 µM in each case. Besides, the TGI in experiment [10], in [11], in [12], in experiment [13], in [14] and in [15] was > 100 µM each time. Besides, the TGI in experiment [16], in experiment [17], in experiment [18] and in experiment [19] was > 100 µM each time.
Consider `CCCCCCC1CC(=O)C1(Cl)Cl` (configuration not stated), for which the TGI in experiment [2] was 92.8 µM; in experiment [3], > 100 µM; in [4], 66.8 µM; in experiment [5] it was 61.8 µM; in experiment [7], 52.1 µM; in experiment [8], > 100 µM. Moreover, the TGI in [9] is > 100 µM; in experiment [11], > 100 µM; in [12] it was > 100 µM; in experiment [14], 66.5 µM; in [15], > 100 µM; in experiment [17], > 100 µM. In addition, the TGI in experiment [18] and in [19] was > 100 µM in each case.
Consider `CSc1nc2nc(C(O)C(O)C(O)CO)cnc2c(=O)[nH]1` (configuration not stated), for which the TGI in [1], in experiment [3], in experiment [4], in experiment [5], in experiment [7] and in [8] was > 100 µM throughout. Also, the TGI in experiment [10], in experiment [12], in experiment [13], in [14], in experiment [15] and in experiment [16] was > 100 µM throughout. For the same compound, the TGI in experiment [17], in [18] and in [19] was > 100 µM each time.

Values taken from PubChem BioAssay (NCI).
